# In ChEMBL document CHEMBL1142476, “Inhibition of Candida albicans isocitrate lyase activity by sesterterpene sulfates from the tropical sponge Dysidea sp” (Bioorg Med Chem Lett, 2008):
# Assays:
# [1] = test system: Candida albicans; assay: Antifungal activity against candida albicans ATCC 10231; type: functional, organism-based
# [2] = biological target: Isocitrate lyase (Candida albicans, UniProt Q9P8Q7); assay: Inhibition of candida albicans isocitrate lyase
# [3] = test system: Escherichia coli; assay: Antibacterial activity against Escherichia coli ATCC 11775; type: functional
# [4] = test system: Micrococcus luteus; assay: Antibacterial activity against Micrococcus luteus IFC12708; type: functional
# [5] = test system: Bacillus subtilis; assay: Antibacterial activity against Bacillus subtilis ATCC 6633; type: functional
# [6] = test system: Staphylococcus aureus; assay: Antibacterial activity against Staphylococcus aureus ATCC 6538; type: functional
# [7] = test system: Proteus vulgaris; assay: Antibacterial activity against Proteus vulgaris ATCC 3851; type: functional
# [8] = test system: Salmonella typhimurium; assay: Antibacterial activity against Salmonella Typhimurium ATCC 14028; type: functional, Salmonella enterica subsp. enterica serovar Typhimurium; conditions: Salmonella enterica
# Isocitrate lyase, sequence (Q9P8Q7 whole entry): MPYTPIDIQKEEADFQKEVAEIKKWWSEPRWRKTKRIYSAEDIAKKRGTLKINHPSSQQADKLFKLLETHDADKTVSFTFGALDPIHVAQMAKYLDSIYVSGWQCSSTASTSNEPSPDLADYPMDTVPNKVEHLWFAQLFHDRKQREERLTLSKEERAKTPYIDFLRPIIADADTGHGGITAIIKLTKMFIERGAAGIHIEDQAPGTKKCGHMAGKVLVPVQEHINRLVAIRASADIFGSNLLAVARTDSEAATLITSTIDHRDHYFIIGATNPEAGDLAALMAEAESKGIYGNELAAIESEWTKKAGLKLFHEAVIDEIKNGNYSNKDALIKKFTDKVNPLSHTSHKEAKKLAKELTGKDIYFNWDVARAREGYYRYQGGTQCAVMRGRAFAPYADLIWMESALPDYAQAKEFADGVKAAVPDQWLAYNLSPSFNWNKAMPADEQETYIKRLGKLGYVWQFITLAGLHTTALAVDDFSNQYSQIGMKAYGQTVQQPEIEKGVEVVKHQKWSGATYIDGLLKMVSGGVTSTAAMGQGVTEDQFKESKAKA
Compound,IC50 [1],IC50 [2],MIC [3],MIC [4],MIC [5],MIC [6],MIC [7],MIC [8]
CC1=CC[C@H]2C(C)(C)CCC[C@]2(C)[C@H]1C[C@@H](OS(=O)(=O)O)[C@H](C)CCC/C(C)=C/Cc1cc(O)ccc1O.CN(C)C(=N)N,158 µM,158 µM,> 100 µg/mL,> 100 µg/mL,6.25 µg/mL,50 µg/mL,12.5 µg/mL,50 µg/mL
O=C(O)CC[N+](=O)[O-],845 µM,50.7 µM,,,,,,
CN(C)C(=N)N.C[C@@H]1CCC2=C(CCCC2(C)C)[C@@]1(C)CC[C@H](CCCc1ccoc1)COS(=O)(=O)O,186 µM,33.8 µM,> 100 µg/mL,50 µg/mL,6.25 µg/mL,50 µg/mL,12.5 µg/mL,> 100 µg/mL
CC1=CCC[C@@H](C)[C@]1(C)CC/C(C)=C/CCC(CCCc1ccoc1)COS(=O)(=O)O.CN(C)C(=N)N (stereo not given in full),186 µM,186 µM,> 100 µg/mL,> 100 µg/mL,6.25 µg/mL,> 100 µg/mL,25 µg/mL,> 100 µg/mL
CC1=CC[C@H]2C(C)(C)CCC[C@]2(C)[C@H]1C/C=C(\C)CCC/C(C)=C/Cc1cc(O)ccc1O,222 µM,76.8 µM,> 100 µg/mL,25 µg/mL,3.25 µg/mL,100 µg/mL,6.25 µg/mL,25 µg/mL
C=C1CC[C@H]2C(C)(C)CCC[C@]2(C)[C@H]1C[C@@H](OS(=O)(=O)[O-])[C@H](C)CCC/C(C)=C/Cc1cc(O)ccc1O.[Na+],131 µM,71 µM,> 100 µg/mL,50 µg/mL,1.56 µg/mL,25 µg/mL,6.25 µg/mL,50 µg/mL
C=C1CCC[C@@H]2[C@@](C)(CC[C@H](CCCc3ccoc3)COS(=O)(=O)O)[C@H](C)CC[C@]12C.CN(C)C(=N)N,186 µM,31.3 µM,> 100 µg/mL,25 µg/mL,12.5 µg/mL,50 µg/mL,6.25 µg/mL,25 µg/mL
C[C@@H]1[C@H](O)[C@@H](C)/C=C/C=C/C=C/C=C/C=C/C=C/C=C/[C@H](O[C@@H]2O[C@H](C)[C@@H](O)[C@H](N)[C@@H]2O)C[C@@H]2O[C@](O)(C[C@@H](O)C[C@@H](O)[C@H](O)CC[C@@H](O)C[C@@H](O)CC(=O)O[C@H]1C)C[C@H](O)[C@H]2C(=O)O [AMPHOTERICIN B],1.7 µM,,,,,,,
CC1(C)S[C@@H]2[C@H](NC(=O)[C@H](N)c3ccccc3)C(=O)N2[C@H]1C(=O)O [AMPICILLIN],,,6.25 µg/mL,1.56 µg/mL,1.56 µg/mL,3.12 µg/mL,1.56 µg/mL,1.56 µg/mL
CC1=CC[C@H]2C(C)(C)CCC[C@]2(C)[C@H]1C[C@@H](OS(=O)(=O)[O-])[C@H](C)CCC/C(C)=C/Cc1cc(O)ccc1O.[Na+] [HALISULFATE 1],131 µM,70.2 µM,> 100 µg/mL,50 µg/mL,1.56 µg/mL,25 µg/mL,6.25 µg/mL,50 µg/mL
